{
  "source": "patent US11173160B2",
  "about": "(UNIVERSITY OF PITTSBURGH—OF THE COMMONWEALTH SYSTEM OF …, priority 2019, dated 2021)",
  "key": {"Fyn": {"target": "Fyn (Homo sapiens, UniProt P06241)", "details": "Source Millipore; 10-point titration in duplicates, done once; cited from earlier work"}, "p38α": {"target": "p38α (Homo sapiens, UniProt Q16539)", "sequence (Q16539 whole entry)": "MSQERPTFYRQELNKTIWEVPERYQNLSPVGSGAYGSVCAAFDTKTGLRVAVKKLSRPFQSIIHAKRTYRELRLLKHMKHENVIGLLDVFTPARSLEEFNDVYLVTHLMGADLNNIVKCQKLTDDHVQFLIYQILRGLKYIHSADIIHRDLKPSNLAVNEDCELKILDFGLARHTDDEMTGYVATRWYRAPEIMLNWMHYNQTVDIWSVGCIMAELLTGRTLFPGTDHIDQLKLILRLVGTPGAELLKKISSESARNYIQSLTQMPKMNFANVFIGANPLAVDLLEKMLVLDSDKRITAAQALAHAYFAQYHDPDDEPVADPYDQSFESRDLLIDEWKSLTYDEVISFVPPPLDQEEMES", "details": "cited from earlier work"}, "IRAK4": {"target": "IRAK4 (Homo sapiens, UniProt Q9NWZ3)", "sequence (Q9NWZ3 whole entry)": "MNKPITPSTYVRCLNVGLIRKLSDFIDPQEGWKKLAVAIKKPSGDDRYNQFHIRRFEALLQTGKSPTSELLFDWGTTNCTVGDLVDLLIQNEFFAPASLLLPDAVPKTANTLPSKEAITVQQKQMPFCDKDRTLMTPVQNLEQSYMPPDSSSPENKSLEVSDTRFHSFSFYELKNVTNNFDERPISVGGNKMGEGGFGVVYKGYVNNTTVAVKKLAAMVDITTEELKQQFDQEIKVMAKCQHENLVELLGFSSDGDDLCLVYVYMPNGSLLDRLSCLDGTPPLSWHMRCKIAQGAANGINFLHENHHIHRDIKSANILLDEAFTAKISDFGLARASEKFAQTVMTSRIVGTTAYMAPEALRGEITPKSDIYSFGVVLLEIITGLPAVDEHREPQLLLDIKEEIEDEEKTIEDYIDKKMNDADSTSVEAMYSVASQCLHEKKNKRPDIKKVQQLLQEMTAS", "details": "cited from earlier work"}, "PLK3": {"target": "PLK3 (Homo sapiens, UniProt Q9H4B4)", "sequence (Q9H4B4 whole entry, species assumed)": "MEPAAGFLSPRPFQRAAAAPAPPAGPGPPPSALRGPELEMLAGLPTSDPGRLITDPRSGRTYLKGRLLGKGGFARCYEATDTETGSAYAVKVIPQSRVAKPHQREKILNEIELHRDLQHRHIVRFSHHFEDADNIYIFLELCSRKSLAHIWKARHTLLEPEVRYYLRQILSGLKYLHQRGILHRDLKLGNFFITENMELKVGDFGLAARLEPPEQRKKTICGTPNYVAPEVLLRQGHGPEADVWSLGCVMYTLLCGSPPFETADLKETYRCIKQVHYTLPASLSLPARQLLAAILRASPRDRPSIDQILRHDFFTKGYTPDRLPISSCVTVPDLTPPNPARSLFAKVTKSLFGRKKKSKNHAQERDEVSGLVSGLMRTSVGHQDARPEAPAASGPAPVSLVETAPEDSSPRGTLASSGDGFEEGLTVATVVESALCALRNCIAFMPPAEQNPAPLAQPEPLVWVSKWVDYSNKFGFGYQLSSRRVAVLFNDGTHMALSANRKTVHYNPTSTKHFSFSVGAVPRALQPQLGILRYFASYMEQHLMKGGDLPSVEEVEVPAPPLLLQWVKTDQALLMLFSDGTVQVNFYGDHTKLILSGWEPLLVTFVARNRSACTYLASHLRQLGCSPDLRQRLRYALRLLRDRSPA", "details": "cited from earlier work"}, "MYCN in DIPG-13p cells": {"test_system": "MYCN in DIPG-13p cells", "assay": "MYCN transcript (qRT-PCR) and protein (Western blot)", "assay_type": "cell-based, human", "details": "DIPG-13p cells (MYCN amplification)", "method": "FIG. 14E provides Western blot confirming MYCN protein levels decrease in DIPG-13p cells from FIG. 14E.\nTotal RNA isolation was performed using an RNA extraction kit according to the manufacturer's instructions (RNeasy kit, Qiagen). cDNA was synthesized from 100 ng of total RNA using the Quantitect RT kit which included DNAse treatment (Qiagen). Quantitative real-time PCR was performed on 10 ng of cDNA template in a final volume of 20 μl using the Chromo4 Real Time PCR detector (MJ Research, a Division of Bio-Rad Laboratories Ltd) using SYBR green fluorescence. RT-PCR data was analyzed using Opticon Monitor 3.1.3 analysis software. Data analysis was done using the delta CT method with HPRT1 as a reference/control gene. Specific Primers are available in Table 4."}, "CDK4": {"target": "CDK4 (Homo sapiens, UniProt P11802)", "sequence (P11802 whole entry)": "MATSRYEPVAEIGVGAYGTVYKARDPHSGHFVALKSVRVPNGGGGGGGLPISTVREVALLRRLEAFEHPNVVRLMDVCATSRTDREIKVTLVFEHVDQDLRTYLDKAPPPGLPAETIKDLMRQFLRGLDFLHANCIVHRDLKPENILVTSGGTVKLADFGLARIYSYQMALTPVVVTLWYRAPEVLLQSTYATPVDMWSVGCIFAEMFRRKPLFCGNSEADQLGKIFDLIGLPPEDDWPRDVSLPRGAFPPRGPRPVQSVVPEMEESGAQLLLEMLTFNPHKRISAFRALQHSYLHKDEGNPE", "sequence (P24385 whole entry partner)": "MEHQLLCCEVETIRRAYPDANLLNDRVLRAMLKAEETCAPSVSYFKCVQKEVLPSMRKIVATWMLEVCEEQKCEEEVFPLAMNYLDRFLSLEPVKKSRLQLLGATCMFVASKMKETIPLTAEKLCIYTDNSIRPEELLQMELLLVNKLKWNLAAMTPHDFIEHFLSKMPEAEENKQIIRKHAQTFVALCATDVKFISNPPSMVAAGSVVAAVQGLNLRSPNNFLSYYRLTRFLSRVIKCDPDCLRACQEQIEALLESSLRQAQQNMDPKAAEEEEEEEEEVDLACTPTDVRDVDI", "details": "cited from earlier work"}, "TTK": {"target": "TTK (Homo sapiens, UniProt P33981)", "details": "cited from earlier work"}, "FLT3": {"target": "FLT3 (Homo sapiens, UniProt P36888)", "details": "Source Invitrogen; 10-point titration in duplicates, done once; cited from earlier work"}, "DIPG13p": {"test_system": "DIPG13p", "assay": "IC50 of two forms of TG02 in DIPG cell lines in vitro", "assay_type": "cell-based, human", "details": "DIPG13p cell line; listed as TG02 obtained from Adastra Pharmaceuticals", "method": "(§1) Direct cell counts were performed using the Countess II FL Automated Cell Counter (ThermoFisher Scientific). Alamar blue viability (ThermoFisher Scientific) and the 5-bromo-2′-deoxyuridine (BrdU) incorporated cell proliferation assay (Cell Signaling Technology Cat #6813) were performed using the manufacturer's standard protocol. EC50 curve analysis was performed using raw fluorescent Alamar blue values that were inputted into PRISM 7.0. Drug concentrations were log 10 transformed and values normalized to percent viability with respect to vehicle treated cells. EC50 values were interpolated from a log inhibitor vs. normalized response with variable slope using a least square fit model."}, "DIPG4": {"test_system": "DIPG4", "assay": "IC50 of two forms of TG02 in DIPG cell lines in vitro", "assay_type": "cell-based, human", "details": "DIPG4 cell line; listed as TG02 obtained from Adastra Pharmaceuticals", "method": "as §1"}, "SF8628": {"test_system": "SF8628", "assay": "IC50 of two forms of TG02 in DIPG cell lines in vitro", "assay_type": "cell-based, human", "details": "SF8628 cell line; listed as TG02 obtained from Adastra Pharmaceuticals", "method": "as §1"}, "DIPG007": {"test_system": "DIPG007", "assay": "IC50 of two forms of TG02 in DIPG cell lines in vitro", "assay_type": "cell-based, human", "details": "DIPG007 cell line; listed as TG02 obtained from Adastra Pharmaceuticals", "method": "as §1"}, "PRAK": {"target": "PRAK (Homo sapiens, UniProt Q8IW41)", "sequence (Q8IW41 whole entry, species assumed)": "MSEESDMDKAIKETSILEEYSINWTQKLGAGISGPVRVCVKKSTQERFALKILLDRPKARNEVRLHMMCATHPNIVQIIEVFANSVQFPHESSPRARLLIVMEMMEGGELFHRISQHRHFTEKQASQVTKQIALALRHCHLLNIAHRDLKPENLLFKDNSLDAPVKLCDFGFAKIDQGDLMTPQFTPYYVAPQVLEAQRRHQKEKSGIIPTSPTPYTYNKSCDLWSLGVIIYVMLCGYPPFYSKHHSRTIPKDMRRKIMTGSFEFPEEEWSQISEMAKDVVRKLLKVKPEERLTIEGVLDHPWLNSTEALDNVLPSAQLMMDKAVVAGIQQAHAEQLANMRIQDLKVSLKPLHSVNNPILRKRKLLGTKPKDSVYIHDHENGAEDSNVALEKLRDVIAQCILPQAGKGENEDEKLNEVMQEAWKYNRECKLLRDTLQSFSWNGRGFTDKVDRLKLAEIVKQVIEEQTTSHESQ", "details": "cited from earlier work"}, "[1]": {"details": "cited from earlier work"}, "GSK3α": {"target": "GSK3α (Homo sapiens, UniProt P49840)", "details": "cited from earlier work"}, "PKBα": {"target": "PKBα (Homo sapiens, UniProt P31749)", "details": "cited from earlier work"}, "ERK5": {"target": "ERK5 (Homo sapiens, UniProt Q13164)", "sequence (Q13164 whole entry)": "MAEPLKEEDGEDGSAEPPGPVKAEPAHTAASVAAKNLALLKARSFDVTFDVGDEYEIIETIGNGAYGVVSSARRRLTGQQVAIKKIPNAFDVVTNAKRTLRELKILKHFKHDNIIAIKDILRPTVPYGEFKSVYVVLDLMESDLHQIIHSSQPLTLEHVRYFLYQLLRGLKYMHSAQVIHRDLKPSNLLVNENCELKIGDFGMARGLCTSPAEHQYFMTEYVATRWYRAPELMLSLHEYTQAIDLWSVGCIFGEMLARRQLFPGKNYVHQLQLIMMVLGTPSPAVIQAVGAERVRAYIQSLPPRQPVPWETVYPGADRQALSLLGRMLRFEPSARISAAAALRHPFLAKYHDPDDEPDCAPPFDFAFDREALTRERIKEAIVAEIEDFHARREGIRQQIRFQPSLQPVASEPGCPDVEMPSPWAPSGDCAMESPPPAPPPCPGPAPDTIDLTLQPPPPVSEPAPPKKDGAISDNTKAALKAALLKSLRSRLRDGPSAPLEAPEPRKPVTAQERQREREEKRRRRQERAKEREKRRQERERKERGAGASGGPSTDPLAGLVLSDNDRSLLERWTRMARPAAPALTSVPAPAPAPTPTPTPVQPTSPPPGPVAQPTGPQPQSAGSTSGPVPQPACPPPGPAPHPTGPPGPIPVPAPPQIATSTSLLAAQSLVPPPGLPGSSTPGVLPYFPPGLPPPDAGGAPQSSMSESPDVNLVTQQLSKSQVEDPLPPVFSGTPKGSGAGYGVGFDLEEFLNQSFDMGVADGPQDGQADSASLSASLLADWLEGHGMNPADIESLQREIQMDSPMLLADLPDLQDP", "assay": "in vitro kinase assay of purified recombinant ERK5 and MYC", "assay_type": "biochemical", "details": "ERK5 and ATP, 30 minutes at 30° C.", "method": "Purified active recombinant ERK5 protein was purchased from ThermoFisher Scientific (Cat #A32872) and purified recombinant MYC was purchased from Abcam (Cat #ab84132). Purified ERK5 and MYC were resuspended in 40 μl of 1× kinase buffer supplemented with […] ATP, 0.25 μg substrate, and 1.0 μg purified recombinant and active kinase. Samples were incubated in the presence or absence of an ERK5 inhibitor for 30 minutes at 30° C. The reaction was terminated with 20 μl 3×SDS sample buffer. Samples were then boiled at 100° C. for 5 minutes and then evaluated by western blotting using a phospho MYC ser62 antibody (1:1000). 1× Kinase Buffer recipe: 25 mM Tris (pH 7.5), 5 mM O-glycerophosphate, 2 mM DTT, 0.1 mM Na3VO4, 10 mM MgCl2."}, "[2]": {"target": "(Homo sapiens, UniProt O15264)", "sequence (O15264 whole entry)": "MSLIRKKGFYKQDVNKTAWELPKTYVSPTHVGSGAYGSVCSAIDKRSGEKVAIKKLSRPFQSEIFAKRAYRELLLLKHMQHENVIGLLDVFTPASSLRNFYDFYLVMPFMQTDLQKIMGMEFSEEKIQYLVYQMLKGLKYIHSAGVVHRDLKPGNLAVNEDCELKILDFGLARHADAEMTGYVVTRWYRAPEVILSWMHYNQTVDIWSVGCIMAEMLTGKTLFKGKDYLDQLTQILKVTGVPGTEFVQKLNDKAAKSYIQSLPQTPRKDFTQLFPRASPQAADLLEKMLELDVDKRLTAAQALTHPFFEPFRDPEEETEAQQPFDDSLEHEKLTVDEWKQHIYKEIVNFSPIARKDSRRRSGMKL", "details": "Source Invitrogen; 10-point titration in duplicates, done once; cited from earlier work"}, "PAK3": {"target": "PAK3 (Homo sapiens, UniProt O75914)", "sequence (O75914 whole entry)": "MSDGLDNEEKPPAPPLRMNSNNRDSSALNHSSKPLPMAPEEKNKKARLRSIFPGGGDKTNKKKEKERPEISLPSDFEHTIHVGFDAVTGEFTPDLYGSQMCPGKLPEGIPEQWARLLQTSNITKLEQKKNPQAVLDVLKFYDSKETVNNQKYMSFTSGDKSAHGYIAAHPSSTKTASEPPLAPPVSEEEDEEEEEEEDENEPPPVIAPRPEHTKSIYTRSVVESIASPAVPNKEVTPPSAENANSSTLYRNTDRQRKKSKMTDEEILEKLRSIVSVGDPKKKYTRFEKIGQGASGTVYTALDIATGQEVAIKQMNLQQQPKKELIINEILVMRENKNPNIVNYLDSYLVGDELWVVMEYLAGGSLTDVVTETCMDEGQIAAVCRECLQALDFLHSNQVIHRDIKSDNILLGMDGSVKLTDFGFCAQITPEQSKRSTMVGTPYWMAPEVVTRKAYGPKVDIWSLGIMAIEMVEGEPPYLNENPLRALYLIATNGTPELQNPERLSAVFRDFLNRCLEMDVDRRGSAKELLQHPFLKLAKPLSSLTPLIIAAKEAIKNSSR", "details": "cited from earlier work"}, "TYK2": {"target": "TYK2 (Homo sapiens, UniProt P29597)", "details": "Source Invitrogen; 10-point titration in duplicates, done once; cited from earlier work"}, "JNK1": {"target": "JNK1 (Homo sapiens, UniProt P45983)", "details": "cited from earlier work"}, "[3]": {"details": "cited from earlier work", "remark": "listed apart in the source"}, "[4]": {"test_system": "DIPG-13p and SF8628 cells", "assay": "cell growth and Annexin-PI apoptosis assay", "assay_type": "cell-based, human", "method": "FIG. 12E provides Annexin-PI quantification of DIPG cells treated in biological triplicates with ERK5 inhibitors at 48 h from (FIGS. 12C-12D).\nApoptosis was quantified using the Pacific Blue Annexin V Apoptosis Detection Kit with propidium iodide (BioLegend, San Diego, Calif. Cat #640926). Analysis was performed at the Flow Cytometry Core, Rangos Research Center, UPMC Children's Hospital of Pittsburgh."}, "[5]": {"details": "cited from earlier work", "remark": "listed apart in the source"}, "MEK1": {"target": "MEK1 (Homo sapiens, UniProt Q02750)", "sequence (Q02750 whole entry)": "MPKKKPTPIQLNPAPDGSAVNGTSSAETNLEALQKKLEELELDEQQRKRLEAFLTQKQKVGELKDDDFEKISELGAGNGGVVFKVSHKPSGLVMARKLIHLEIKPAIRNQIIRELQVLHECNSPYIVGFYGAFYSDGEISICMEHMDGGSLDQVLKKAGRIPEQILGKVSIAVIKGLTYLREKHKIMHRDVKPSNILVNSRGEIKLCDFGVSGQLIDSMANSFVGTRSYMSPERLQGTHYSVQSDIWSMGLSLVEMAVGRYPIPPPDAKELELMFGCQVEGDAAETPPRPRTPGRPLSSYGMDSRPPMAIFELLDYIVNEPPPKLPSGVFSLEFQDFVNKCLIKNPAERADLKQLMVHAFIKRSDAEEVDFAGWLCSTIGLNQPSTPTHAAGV", "details": "cited from earlier work"}, "Aurora A": {"target": "Aurora A (Homo sapiens, UniProt O14965)", "details": "cited from earlier work"}},
  "note": "pIC50: −log10 of the molar value. Entries after “also recorded” stand apart in the source; their conditions may differ. Like-named read-outs stand apart in the source and are kept apart here.",
  "data": [
    {"smiles": "CN1C/C=C/CCOc2cccc(c2)-c2ccnc(n2)Nc2cccc(c2)C1", "note": "[TG02, (16E)-14-methyl-20-oxa-5,7,14,27-tetraazatetracyclo[19.3.1.12,6.18,12]heptacosa-1(25),2(27),3,5,8(26),9,11,16,21,23-decaene]", "values": [
      {"measurement": "pIC50", "setting": "Fyn", "value": 7.82},
      {"measurement": "inhibition at 100 nm", "setting": "p38α", "value": "less than 50%"},
      {"measurement": "inhibition at 100 nm", "setting": "IRAK4", "value": "less than 50%"},
      {"measurement": "inhibition at 100 nm", "setting": "PLK3", "value": "less than 50%"},
      {"measurement": "MYCN protein and transcript levels", "setting": "MYCN in DIPG-13p cells", "value": "MYCN protein and transcriptional down-regulation"},
      {"measurement": "inhibition at 100 nm", "setting": "CDK4", "value": "less than 50%"},
      {"measurement": "inhibition at 100 nm", "setting": "TTK", "value": "less than 50%"},
      {"measurement": "pIC50", "setting": "FLT3", "value": 7.72},
      {"measurement": "pIC50", "setting": "DIPG13p", "value": 7.10},
      {"measurement": "pIC50", "setting": "DIPG4", "value": 7.22},
      {"measurement": "pIC50", "setting": "SF8628", "value": 7.15},
      {"measurement": "pIC50", "setting": "DIPG007", "value": 7.03},
      {"measurement": "inhibition at 100 nm", "setting": "PRAK", "value": "less than 50%"},
      {"measurement": "inhibition at 100 nm", "setting": "[1]", "value": "less than 50%"},
      {"measurement": "inhibition at 100 nm", "setting": "GSK3α", "value": "less than 50%"},
      {"measurement": "inhibition at 100 nm", "setting": "PKBα", "value": "less than 50%"},
      {"measurement": "phosphorylation of MYC(S62) by ERK5", "setting": "ERK5", "value": "inhibited"},
      {"measurement": "pIC50", "setting": "[2]", "value": 7.25},
      {"measurement": "inhibition at 100 nm", "setting": "PAK3", "value": "less than 50%"},
      {"measurement": "pIC50", "setting": "TYK2", "value": 7.85},
      {"measurement": "inhibition at 100 nm", "setting": "JNK1", "value": "less than 50%"},
      {"measurement": "inhibition at 100 nm", "setting": "[3]", "value": "less than 50%"},
      {"measurement": "apoptosis (Annexin-PI)", "setting": "[4]; 48 h, vs DMSO vehicle control", "value": "induction of apoptosis; also recorded: increased populations in early apoptosis"},
      {"measurement": "viable cells (Annexin negative, PI negative)", "setting": "[4]; 48 h, vs DMSO vehicle control", "value": "decreased viable cells"},
      {"measurement": "cell growth", "setting": "[4]; vs vehicle", "value": "diminished cell growth"},
      {"measurement": "dose-limiting toxicities (DLTs), DD regimen", "setting": "[5]; human, in vivo", "value": "grade 3 diarrhea (n=1) at 200 mg of TG02, and grade 4 neutropenia and grade 3 increase in ALT (n=1) at 250 mg of TG02"},
      {"measurement": "dose-limiting toxicities (DLTs), MN regimen", "setting": "[5]; human, in vivo", "value": "grade 4 lymphopenia (n=2) and increase in ALT (n=1) at 250 mg of TG02"},
      {"measurement": "MTD, metronomic (MN) temozolomide regimen", "setting": "[5]; temozolomide 50 mg/m^2", "value": 200, "unit": "mg"},
      {"measurement": "MTD, dose-dense (DD) temozolomide regimen", "setting": "[5]; temozolomide 125 m/m^2 per day 7 days on/7 days off", "value": 250, "unit": "mg"},
      {"measurement": "inhibition at 100 nm", "setting": "MEK1", "value": "less than 50%"},
      {"measurement": "inhibition at 100 nm", "setting": "Aurora A", "value": "less than 50%"}
    ]}
  ]
}
